Results: patent US6610677B2, “Pyrazole compounds useful as protein kinase inhibitors” (Vertex Pharmaceuticals Incorporated, priority 2000, dated 2003)

What follows are compounds tested against T1, GSK-3β (AA 1-420) (Homo sapiens, UniProt P49841) (assay: Ki determination for the inhibition of GSK-3 (coupled enzyme system)). Details: 20 μM ATP, 300 μM peptide, 20 nM GSK-3β, 30° C.
T1 construct: GSK-3β (AA 1-420)
Format: biochemical
Procedure: Compounds were screened for their ability to inhibit GSK-3β (AA 1-420) activity using a standard coupled enzyme system (Fox et al. (1998) Protein Sci. 7, 2249). Reactions were carried out in a solution containing 100 mM HEPES (pH 7.5), 10 mM MgCl2, 25 mM NaCl, 300 μM NADH, 1 mM DTT and 1.5% DMSO. Final substrate concentrations in the assay were 20 μM ATP (Sigma Chemicals, St Louis, Mo.) and 300 μM peptide (HSSPHQS(PO3H2)EDEEE, American Peptide, Sunnyvale, Calif.). Reactions were carried out at 30° C. and 20 nM GSK-3β. Final concentrations of the components of the coupled enzyme system were 2.5 mM phosphoenolpyruvate, 300 μM NADH, 30 μg/ml pyruvate kinase and 10 μg/ml lactate dehydrogenase.
An assay stock buffer solution was prepared containing all of the reagents listed above with the exception of ATP and the test compound of interest. The assay stock buffer solution (175 μl) was incubated in a 96 well plate with 5 μl of the test compound of interest at final concentrations spanning 0.002 μM to 30 μM at 30° C. for 10 min. Typically, a 12 point titration was conducted by preparing serial dilutions (from 10 mM compound stocks) with DMSO of the test compounds in daughter plates. The reaction was initiated by the addition of 20 μl of ATP (final concentration 20 μM). Rates of reaction were obtained using a Molecular Devices Spectramax plate reader (Sunnyvale, Calif.) over 10 min at 30° C. The Ki values were determined from the rate data as a function of inhibitor concentration.

T1 sequence (P49841 whole entry, the tested form may be a part): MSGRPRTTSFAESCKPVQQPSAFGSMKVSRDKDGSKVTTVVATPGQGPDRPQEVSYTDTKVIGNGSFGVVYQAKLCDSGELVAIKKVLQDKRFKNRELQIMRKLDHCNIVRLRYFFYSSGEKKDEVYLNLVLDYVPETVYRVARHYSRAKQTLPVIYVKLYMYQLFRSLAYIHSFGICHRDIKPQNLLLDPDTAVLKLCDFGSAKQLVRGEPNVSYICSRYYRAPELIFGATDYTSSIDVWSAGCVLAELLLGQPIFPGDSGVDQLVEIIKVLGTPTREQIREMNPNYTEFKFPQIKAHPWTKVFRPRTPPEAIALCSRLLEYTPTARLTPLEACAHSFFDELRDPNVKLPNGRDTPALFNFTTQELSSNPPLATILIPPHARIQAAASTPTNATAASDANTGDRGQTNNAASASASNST

| SMILES | Ki |
| --- | --- |
| Fc1cccc2c(Nc3nc(-c4ccccc4C(F)(F)F)nc4c3CCCCCC4)n[nH]c12 [II-120, (7-Fluoro-1H-indazol-3-yl)-[2-(2-trifluoromethyl-phenyl)-5,6,7,8,9,10-hexahydro-cyclooctapyrimidin-4-yl]-amine] | < 100 nM |
| Fc1cc(F)c2[nH]nc(Nc3nc(-c4ccccc4C(F)(F)F)nc4c3CCCCCC4)c2c1 [II-121, (5,7-Difluoro-1H-indazol-3-yl)-[2-(2-trifluoromethyl-phenyl)-5,6,7,8,9,10-hexahydro-cyclooctapyrimidin-4-yl]-amine] | < 100 nM |
| Fc1ccc2c(Nc3nc(-c4ccccc4C(F)(F)F)nc4ccccc34)n[nH]c2c1 [II-124, (6-Fluoro-1H-indazol-3-yl)-[2-(2-trifluoromethyl-phenyl)-quinazolin-4-yl]-amine] | < 100 nM |
| COC(=O)c1ccc2[nH]nc(Nc3nc(-c4ccccc4C(F)(F)F)nc4ccccc34)c2c1 [II-125, 3-[2-(2-Trifluoromethyl-phenyl)-quinazolin-4-ylamino]-1H-indazole-5-carboxylic acid methyl ester] | < 100 nM |
| Cc1cc(Nc2nc(-c3cccc4ccccc34)nc3ccccc23)n[nH]1 [II-208, (5-Methyl-2H-pyrazol-3-yl)-[2-(2-naphthyl-1-yl)-quinazolin-4-yl]-amine] | < 100 nM |
| Cc1cc(Nc2nc(-c3ccccc3)nc3c2CCCCC3)n[nH]1 [III-8, (5-Methyl-2H-pyrazol-3-yl)-(2-phenyl-6,7,8,9-tetrahydro-5H-cycloheptapyrimidin-4-yl)-amine] | < 100 nM |
| Cc1cc(Nc2nc(-c3ccncc3)nc3ccc(Cl)cc23)[nH]n1 [III-29, (6-Chloro-2-pyridin-4-yl-quinazolin-4-yl)-(5-methyl-2H-pyrazol-3-yl)-amine] | 100 to 1000 nM |
| Cc1cc(Nc2nc(-c3ccc4c(c3)OCO4)nc3ccccc23)[nH]n1 [III-43, (2-Benzo[1,3]dioxol-5-yl-quinazolin-4-yl)-(5-methyl-2H-pyrazol-3-yl)-amine] | 100 to 1000 nM |
| Cc1cc(Nc2nc(-c3ccsc3)nc3ccccc23)[nH]n1 [III-62, (5-Methyl-2H-pyrazol-3-yl)-(2-thiophen-3-yl-quinazolin-4-yl)-amine] | < 100 nM |
| CC(C)NC(=O)c1cc(Nc2nc(-c3ccccc3)nc3ccccc23)[nH]n1 [III-81] | 1000 to 20000 nM |
| COCCNC(=O)c1cc(Nc2nc(-c3ccccc3)nc3ccccc23)[nH]n1 [III-83] | 1000 to 20000 nM |
| CCCNC(=O)c1cc(Nc2nc(-c3ccccc3)nc3ccccc23)[nH]n1 [III-88, (2-Phenyl-quinazolin-4-yl)-(5-propylcarbamoyl-2H-pyrazol-3-yl)-amine] | 100 to 1000 nM |
| O=C(NC1CC1)c1cc(Nc2nc(-c3ccccc3)nc3ccccc23)[nH]n1 [III-90, (5-Cyclopropylcarbamoyl-2H-pyrazol-3-yl)-(2-phenyl-quinazolin-4-yl)-amine] | 100 to 1000 nM |
| CC(C)CNC(=O)c1cc(Nc2nc(-c3ccccc3)nc3ccccc23)[nH]n1 [III-91, (5-Isobutylcarbamoyl-2H-pyrazol-3-yl)-(2-phenyl-quinazolin-4-yl)-amine] | 1000 to 20000 nM |
| Cc1cccc(NC(=O)c2cc(Nc3nc(-c4ccccc4)nc4ccccc34)[nH]n2)c1 [III-94, (2-Phenyl-quinazolin-4-yl)-(5-m-tolylcarbamoyl-2H-pyrazol-3-yl)-amine] | 1000 to 20000 nM |
| Cc1ccc(NC(=O)c2cc(Nc3nc(-c4ccccc4)nc4ccccc34)[nH]n2)cc1 [III-95, (2-Phenyl-quinazolin-4-yl)-(5-p-tolylcarbamoyl-2H-pyrazol-3-yl)-amine] | 1000 to 20000 nM |
| CNC(=O)c1cc(Nc2nc(-c3ccccc3)nc3ccccc23)[nH]n1 [III-96, (5-Methylcarbamoyl-2H-pyrazol-3-yl)-(2-phenyl-quinazolin-4-yl)-amine] | 1000 to 20000 nM |
| O=C(c1cc(Nc2nc(-c3ccccc3)nc3ccccc23)[nH]n1)N1CCOCC1 [III-97, [5-(Morpholine-4-carbonyl)-2H-pyrazol-3-yl]-(2-phenyl-quinazolin-4-yl)-amine] | 1000 to 20000 nM |
| CN1CCN(C(=O)c2cc(Nc3nc(-c4ccccc4)nc4ccccc34)[nH]n2)CC1 [III-98, [5-(1-Methylpiperazine-4-carbonyl)-2H-pyrazol-3-yl]-(2-phenyl-quinazolin-4-yl)-amine] | 1000 to 20000 nM |
| O=C(NCCO)c1cc(Nc2nc(-c3ccccc3)nc3ccccc23)[nH]n1 [III-99] | 1000 to 20000 nM |

| SMILES | Ki |
| --- | --- |
| NC(=O)c1cc(Nc2nc(-c3ccccc3)nc3ccccc23)[nH]n1 [III-100, (5-Carbamoyl-2H-pyrazol-3-yl)-(2-phenyl-quinazolin-4-yl)-amine] | 1000 to 20000 nM |
| COC(=O)c1cc(Nc2nc(N3CCCCC3)nc3ccccc23)[nH]n1 [III-122, (5-Methoxycarbonyl-2H-pyrazol-3-yl)-[2-(piperidine-1-yl)-quinazolin-4-yl]-amine] | 100 to 1000 nM |
| O=C(c1cc(Nc2nc(N3CCCCC3)nc3ccccc23)[nH]n1)N1CCCCC1 [III-123, [5-(Piperidine-1-carbonyl)-2H-pyrazol-3-yl]-[2-(piperidine-1-yl)-quinazolin-4-yl]-amine] | 1000 to 20000 nM |
| FC(F)(F)c1ccc2[nH]nc(Nc3nc(-c4ccccc4)nc4c3CCCC4)c2c1 [III-128, (2-Phenyl-5,6,7,8-tetrahydroquinazolin-4-yl)-(5-trifluoromethyl-1H-indazol-3-yl)-amine] | < 100 nM |
| Fc1cc(F)c2n[nH]c(Nc3nc(-c4ccccc4)nc4ccccc34)c2c1 [III-131, (5,7-Difluoro-1H-indazol-3-yl)-(2-phenyl-quinazolin-4-yl)-amine] | < 100 nM |
| COc1cccc(-n2nc3c(Nc4nc(-c5ccccc5)nc5ccccc45)n[nH]c3cc2=O)c1 [III-134, [5-(3-Methoxy-phenyl)-6-oxo-5,6-dihydro-1H-pyrazolo[4,3-c]pyridazin-3-yl]-(2-phenyl-quinazolin-4-yl)-amine] | 100 to 1000 nM |
| O=c1cc2[nH]nc(Nc3nc(-c4ccccc4)nc4ccccc34)c2nn1-c1ccccc1 [III-135, (6-Oxo-5-phenyl-5,6-dihydro-1H-pyrazolo[4,3-c]pyridazin-3-yl)-(2-phenyl-quinazolin-4-yl)-amine] | 100 to 1000 nM |
| COc1ccc(-n2nc3c(Nc4nc(-c5ccccc5)nc5ccccc45)n[nH]c3cc2=O)cc1 [III-136, [5-(4-Methoxy-phenyl)-6-oxo-5,6-dihydro-1H-pyrazolo[4,3-c]pyridazin-3-yl]-(2-phenyl-quinazolin-4-yl)-amine] | 100 to 1000 nM |
| O=c1cc2[nH]nc(Nc3nc(-c4ccccc4)nc4ccccc34)c2nn1-c1ccc(Cl)cc1Cl [III-137, [5-(2,4-Dichloro-phenyl)-6-oxo-5,6-dihydro-1H-pyrazolo[4,3-c]pyridazin-3-yl]-(2-phenyl-quinazolin-4-yl)-amine] | 1000 to 20000 nM |
| O=c1cc2[nH]nc(Nc3nc(-c4ccccc4)nc4ccccc34)c2nn1-c1cccc(C(F)(F)F)c1 [III-138, [6-Oxo-5-(3-trifluoromethyl-phenyl)-5,6-dihydro-1H-pyrazolo[4,3-c]pyridazin-3-yl]-(2-phenyl-quinazolin-4-yl)-amine] | 100 to 1000 nM |
| O=c1cc2[nH]nc(Nc3nc(-c4ccccc4)nc4ccccc34)c2nn1-c1ccc(Oc2ccccc2)cc1 [III-139, [6-Oxo-5-(4-Phenoxy-phenyl)-5,6-dihydro-1H-pyrazolo[4,3-c]pyridazin-3-yl]-(2-phenyl-quinazolin-4-yl)-amine] | 1000 to 20000 nM |
| O=c1cc2[nH]nc(Nc3nc(-c4ccccc4)nc4ccccc34)c2nn1-c1ccc(Cl)cc1 [III-140, [5-(4-Chloro-phenyl)-6-oxo-5,6-dihydro-1H-pyrazolo[4,3-c]pyridazin-3-yl]-(2-phenyl-quinazolin-4-yl)-amine] | 100 to 1000 nM |
| Cc1nccn1-c1nc(Nc2[nH]nc3ccccc23)c2ccccc2n1 [III-142] | 100 to 1000 nM |
| c1ccc2c(Nc3[nH]nc4ccccc34)nc(N3CCCCC3)nc2c1 [III-143, (1H-Indazol-3-yl)-(2-piperidin-1-yl-quinazolin-4-yl)-amine] | 1000 to 20000 nM |
| CC1CN(c2nc(Nc3[nH]nc4ccccc34)c3ccccc3n2)CC(C)O1 (stereo not shown) [III-145, (1H-Indazol-3-yl)-[2-(2,6-dimethyl-morpholin-4-yl)-quinazolin-4-yl]-amine] | 1000 to 20000 nM |
| CC1CCCCN1c1nc(Nc2n[nH]c3ccccc23)c2ccccc2n1 (stereo not shown) [III-146] | 1000 to 20000 nM |
| Fc1ccc2[nH]nc(Nc3nc(-c4ccccc4)nc4c3CNCC4)c2c1 [IV-36, (5-Fluoro-1H-indazol-3-yl)-(2-phenyl-5,6,7,8-tetrahydro-pyrido[4,3-d]pyrimidin-4-yl)-amine] | 100 to 1000 nM |
| Cc1nc(Nc2nc(-c3ccccc3C(F)(F)F)nc3ccccc23)n[nH]1 [IX-38, (5-Methyl-2H-[1,2,4]triazol-3-yl)-[2-(2-trifluoromethylphenyl)-quinazolin-4-yl]-amine] | 100 to 1000 nM |
| CSc1n[nH]c(Nc2nc(-c3ccccc3C(F)(F)F)nc3ccccc23)n1 [IX-156, (5-Methylsulfanyl-2H-[1,2,4]triazol-3-yl)-[2-(2-trifluoromethylphenyl)-quinazolin-4-yl]-amine] | 1000 to 20000 nM |
| c1ccc(-c2cc(Nc3nc[nH]n3)c3ccccc3n2)cc1 [IX-176, (2-Phenyl-quinolin-4-yl)-(1H-[1,2,4]triazol-3-yl)-amine] | 1000 to 20000 nM |
